Patent publication US8431565B2 (priority 2007, dated 2013)

Tests used:
Male ICR mice = assay: Inhibition of acetic acid-induced writhing; format: in vivo, mouse; conditions: subcutaneous 3, 10 and 30 mg/kg, FIG. 2
Excerpt: 12: 525-562; Ramabadran and Bansinath (1986) Pharm. Res. 3: 263-270]. Intraperitoneal administration of dilute acetic acid solution causes a writhing behavior in mice. A writhe is defined as a contraction of the abdominal muscles accompanied by an extension of the forelimbs and elongation of the body. The number of writhes observed in the presence and absence of test compounds is counted to determine the analgesic activity of the compounds.
Male ICR mice, 20-40 grams in weight, were weighed and placed in individual observation chambers (usually a 4000 ml beaker) with a fine layer of rodent bedding at the bottom. To determine the activity and potency of test compounds, different doses of the compound solution or vehicle were injected subcutaneously in the back of the neck 30 minutes prior to administration of acetic acid solution. After administration of the compound or vehicle control, mice were returned to their individual observation chambers awaiting the intraperitoneal administration of acetic acid solution. Thirty minutes later, 10 ml/kg of a 0.6% (v/v) acetic acid solution was then injected into the right lower quadrant of the abdomen. […] The number of writhes was counted over a 15-min period starting from the time of acetic acid injection. Raw data were analyzed using a one-way ANOVA followed by Dunnett's post-tests. […]

rats [1] = assay: Carrageenan model of acute inflammation; format: in vivo; conditions: rat
rats [2] = assay: Spinal nerve ligation (SNL) model of neuropathic pain; format: in vivo; conditions: rat; oral 3, 10 and 30 mg/kg; FIG. 4
Experimental: The SNL model (Kim and Chung 1992) was used to induce chronic neuropathic pain in rats. The rats were anesthetized with isoflurane, the left L5 transverse process was removed, and the L5 and L6 spinal nerves were tightly ligated with 6-0 silk suture. The wound was then closed with internal sutures and external staples. Following at least seven days post SNL, baseline, post-injury and post-treatment values for non-noxious mechanical sensitivity were evaluated using eight Semmes-Weinstein filaments (Stoelting, Wood Dale, Ill., USA) with varying stiffness (0.4, 0.7, 1.2, 2.0, 3.6, 5.5, 8.5, and 15 g) according to the up-down method (Chaplan et al. 1994). Animals were placed on a perforated metallic platform and allowed to acclimate to their surroundings for a minimum of thirty minutes before testing. The mean and standard error of the mean (SEM) were determined for the injured paw in each treatment group. Since this stimulus is normally not considered painful, significant injury-induced increases in responsiveness in this test are interpreted as a measure of mechanical allodynia. The dose which elicited 50% attenuation of mechanical hypersensitivity (ED50) was determined using linear regression analysis. Results obtained after oral administration of compound 317 at 3, 10 and 30 mg/kg and with compound 366 at 1, 3 and 10 mg/kg are shown in FIG. 4.

`CNC(=O)[C@@H](NC(=O)c1nc(-c2ccccc2)n2c1CN(C)CCC2)C(C)(C)C` [Compound 317, (S)—N-(3,3-dimethyl-1-(methylamino)-1-oxobutan-2-yl)-8-methyl-3-phenyl-6,7,8,9-tetrahydro-5H-imidazo[1,5-a][1,4]diazepine-1-carboxamide] was tested, and the “inhibition of acetic acid-induced writhing” value (Male ICR mice) was “dose response in the inhibition of acetic acid-induced writhing”, the “inhibition of carrageenan-induced hyper-sensitivity” value (rats [1]; sub-cutaneous 3, 10 and 30 mg/kg, FIG. 3A) was “dose response in the inhibition of carrageenan-induced hyper-sensitivity” and the “response in the neuropathic pain model” value (rats [2]) was “dose response in the neuropathic pain model”.

With `CNC(=O)[C@@H](NC(=O)c1nc(-c2ccc(Cl)cc2F)n2c1CN(C)CCC2)C(C)(C)C` [Compound 366, (S)-3-(4-chloro-2-fluorophenyl)-N-(3,3-dimethyl-1-(methylamino)-1-oxobutan-2-yl)-8-methyl-6,7,8,9-tetrahydro-5H-imidazo[1,5-a][1,4]diazepine-1-carboxamide] the “inhibition of acetic acid-induced writhing” value (Male ICR mice) was “dose response in the inhibition of acetic acid-induced writhing”, the “inhibition of carrageenan-induced hyper-sensitivity” value (rats [1]; oral 1, 3 and 10 mg/kg, FIG. 3B) was “dose response in the inhibition of carrageenan-induced hyper-sensitivity” and the “response in the neuropathic pain model” value (rats [2]) was “dose response in the neuropathic pain model”.
